# From patent US7179806B2, “Δ1-pyrrolines used as pesticides” (Bayer Cropscience AG, priority 2000, dated 2007)
# Tested on: not listed separately
# Assay: log P determination by HPLC (reversed-phase C18, EEC Directive 79/831 Annex V.A8)
# Format: physicochemical
# Details: reversed-phase C18 HPLC column, pH 2.3, pH 2.3, 0.1% aqueous phosphoric acid/acetonitrile gradient, 43° C
# Description: Mobile phases for determination in the acidic range: 0.1% aqueous phosphoric acid, acetonitrile; linear gradient from 10% acetonitrile to 90% acetonitrile.
row,Compound,chromatographic logP
1,Cc1cnc(-c2ccc(C3CCC(c4c(F)cccc4F)=N3)cc2)nc1 (stereo not drawn) [Example 177],2.02
2,COCCN(CCC#N)c1ncc(-c2ccc(C3CCC(c4c(F)cccc4F)=N3)cc2)cn1 (stereo not drawn) [Example 178],2.45
3,Fc1cccc(F)c1C1=NC(c2ccc(-c3ccc(Br)nc3)cc2)CC1 (stereo not drawn) [Example 179],2.69
4,Fc1cccc(F)c1C1=NC(c2ccc(-c3ncc(Br)cn3)cc2)CC1 (stereo not drawn) [Example 180],3.08
5,CCc1cnc(-c2ccc(C3CCC(c4c(F)cccc4F)=N3)cc2)nc1 (stereo not drawn) [Example 181],2.46
6,CN(Cc1ccco1)c1ncc(-c2ccc(C3CCC(c4c(F)cccc4F)=N3)cc2)cn1 (stereo not drawn) [Example 182],3.1
7,CCN(Cc1ccco1)c1ncc(-c2ccc(C3CCC(c4c(F)cccc4F)=N3)cc2)cn1 (stereo not drawn) [Example 183],3.59
8,Fc1cccc(F)c1C1=NC(c2ccc(-c3cnc(NCc4ccco4)nc3)cc2)CC1 (stereo not drawn) [Example 184],2.31
9,CCC(C)N(Cc1ccco1)c1ncc(-c2ccc(C3CCC(c4c(F)cccc4F)=N3)cc2)cn1 (stereo not drawn) [Example 185],4.54
10,Cc1ccc(CN(C)c2ncc(-c3ccc(C4CCC(c5c(F)cccc5F)=N4)cc3)cn2)o1 (stereo not drawn) [Example 186],3.4
11,Fc1cccc(F)c1C1=NC(c2ccc(-c3cnc(N4CCC5(CC4)OCCO5)nc3)cc2)CC1 (stereo not drawn) [Example 187],2.51
12,Fc1cccc(F)c1C1=NC(c2ccc(-c3ncc(-c4ccc(Cl)cc4)cn3)cc2)CC1 (stereo not drawn) [Example 188],4.12
13,Fc1cccc(F)c1C1=NC(c2ccc(-c3ccc(N4CCN(Cc5ccccc5)CC4)nc3)cc2)CC1 (stereo not drawn) [Example 189],1.5
14,N#Cc1cccnc1N1CCN(c2ccc(-c3ccc(C4CCC(c5c(F)cccc5F)=N4)cc3)cn2)CC1 (stereo not drawn) [Example 190],3.09
15,Cc1ccc(N2CCN(c3ccc(-c4ccc(C5CCC(c6c(F)cccc6F)=N5)cc4)cn3)CC2)cc1C (stereo not drawn) [Example 191],2.58
16,CC(C)N1CCN(c2ccc(-c3ccc(C4CCC(c5c(F)cccc5F)=N4)cc3)cn2)CC1 (stereo not drawn) [Example 192],1.14
17,CCOCCN1CCN(c2ccc(-c3ccc(C4CCC(c5c(F)cccc5F)=N4)cc3)cn2)CC1 (stereo not drawn) [Example 193],1.26
18,COCCCN1CCN(c2ccc(-c3ccc(C4CCC(c5c(F)cccc5F)=N4)cc3)cn2)CC1 (stereo not drawn) [Example 195],1.16
19,Fc1cccc(F)c1C1=NC(c2ccc(-c3cnc(OC4CCC4)nc3)cc2)CC1 (stereo not drawn) [Example 197],2.88
20,Fc1cccc(F)c1C1=NC(c2ccc(-c3cnc(OC4CCCCC4)nc3)cc2)CC1 (stereo not drawn) [Example 198],3.67
21,Fc1cccc(F)c1C1=NC(c2ccc(-c3cnc(OC4CCCC4)nc3)cc2)CC1 (stereo not drawn) [Example 199],3.21

row,Compound,chromatographic logP
1,Fc1cccc(F)c1C1=NC(c2ccc(-c3cnc(OCC4CC4)nc3)cc2)CC1 (stereo not drawn) [Example 200],2.74
2,CCNCc1ccc(-c2ccc(C3CCC(c4c(F)cccc4F)=N3)cc2)nc1 (stereo not drawn) [Example 201],0.9
3,Cc1ccc(-c2ccc(C3CCC(c4c(F)cccc4F)=N3)cc2)nc1 (stereo not drawn) [Example 202],1.24
4,Fc1cccc(F)c1C1=NC(c2ccc(-c3ccc(N4CCN(c5cccc(C(F)(F)F)c5)CC4)nc3)cc2)CC1 (stereo not drawn) [Example 203],3
5,Fc1cccc(F)c1C1=NC(c2ccc(-c3ccc(N4CCN(c5ncccn5)CC4)nc3)cc2)CC1 (stereo not drawn) [Example 204],1.5
6,Cc1cccc(C)c1N1CCN(c2ccc(-c3ccc(C4CCC(c5c(F)cccc5F)=N4)cc3)cn2)CC1 (stereo not drawn) [Example 205],3.76
7,COC(CN(C)c1ncc(-c2ccc(C3CCC(c4c(F)cccc4F)=N3)cc2)cn1)OC (stereo not drawn) [Example 206],2.32
8,CCOC(CN(C)c1ncc(-c2ccc(C3CCC(c4c(F)cccc4F)=N3)cc2)cn1)OCC (stereo not drawn) [Example 207],3.09
9,CN(Cc1ccc(Cl)nc1)c1ncc(-c2ccc(C3CCC(c4c(F)cccc4F)=N3)cc2)cn1 (stereo not drawn) [Example 208],2.89
10,CCN(Cc1ccc(Cl)nc1)c1ncc(-c2ccc(C3CCC(c4c(F)cccc4F)=N3)cc2)cn1 (stereo not drawn) [Example 209],3.6
11,O/N=C/c1ccc(-c2ccc(C3CCC(c4c(F)cccc4F)=N3)cc2)nc1 (stereo not drawn) [Example 210],1.58
12,CC(=O)c1ccc(-c2ccc(C3CCC(c4c(F)cccc4F)=N3)cc2)nc1 (stereo not drawn) [Example 211],2
13,CN(c1ncc(-c2ccc(C3CCC(c4c(F)cccc4F)=N3)cc2)cn1)C1CCCCC1 (stereo not drawn) [Example 212],4.11
14,CC(C#N)c1ccc(-c2ccc(C3CCC(c4c(F)cccc4F)=N3)cc2)nc1 (stereo not drawn) [Example 213],1.98
15,O=C1CCN(c2ncc(-c3ccc(C4CCC(c5c(F)cccc5F)=N4)cc3)cn2)CC1 (stereo not drawn) [Example 214],2
16,CON=C1CCN(c2ncc(-c3ccc(C4CCC(c5c(F)cccc5F)=N4)cc3)cn2)CC1 (stereo not drawn) [Example 215],2.65
17,CCON=C1CCN(c2ncc(-c3ccc(C4CCC(c5c(F)cccc5F)=N4)cc3)cn2)CC1 (stereo not drawn) [Example 216],3.1
18,CC(C)ON=C1CCN(c2ncc(-c3ccc(C4CCC(c5c(F)cccc5F)=N4)cc3)cn2)CC1 (stereo not drawn) [Example 217],3.83
19,Fc1cccc(F)c1C1=NC(c2ccc(-c3ncc(Cl)cn3)cc2)CC1 (stereo not drawn) [Example 218],2.87
20,Cc1nc(-c2ccc(C3CCC(c4c(F)cccc4F)=N3)cc2)nc(C)c1Cl (stereo not drawn) [Example 219],3.9
21,CCOC(=O)c1cncc(-c2ccc(C3CCC(c4c(F)cccc4F)=N3)cc2)c1 (stereo not drawn) [Example 220],2.42

row,Compound,chromatographic logP
1,O=Cc1ccc(-c2ccc(C3CCC(c4c(F)cccc4F)=N3)cc2)nc1 (stereo not drawn) [Example 221],1.95
2,"Brc1ccc(N2CCOCC2)nc1 [III-1, 4-(5-bromo-2-pyridinyl)morpholine]",1.63
3,"FC(F)(F)COc1ccc(Br)cn1 [III-2, 5-bromo-2-(2,2,2-trifluoroethoxy)pyridine]",3.48
4,"CCCN(CC)c1ncc(Br)cn1 [III-3, N-(5-bromo-2-pyrimidinyl)-N-ethyl-N-propylamine]",4.38
5,"Brc1cnc(N2CCOCC2)nc1 [III-5, 4-(5-bromo-2-pyrimidinyl)morpholine]",2.15
6,"CC(C)(C)C(=O)N1CCN(c2ncc(Br)cn2)CC1 [III-6, 1-(tert-butylcarbonyl)-4-(5-bromo-2-pyrimidinyl)piperazine]",2.86
7,"CC(C)Oc1ncc(Br)cn1 [III-7, 5-bromo-2-pyrimidinyl isopropyl ether]",2.39
8,"CC(C)Sc1ncc(Br)cn1 [III-8, 5-bromo-2-pyrimidinyl isopropyl sulphide]",3.34
9,"CCN(CC)c1ccc(Cl)nn1 [III-10, N-(6-chloro-3-pyridazinyl)-N,N-diethylamine]",0.51
10,"CCCN(CCC)c1ccc(Cl)nn1 [III-12, N-(6-chloro-3-pyridazinyl)-N,N-dipropylamine]",1.82
11,"O=C(OCc1ccccc1)N1CCN(c2ccc(Cl)nn2)CC1 [III-13, benzyl 4-(6-chloro-3-pyridazinyl)-1-piperazinecarboxylate]",2.36
12,"O=C1CCCN1c1ccc(Cl)nn1 [III-14, 1-(6-chloro-3-pyridazinyl)-2-pyrrolidinone]",1.09
13,"Clc1ccc(NC2CCCCC2)nn1 [III-15, N-(6-chloro-3-pyridazinyl)-N-cyclohexylamine]",0.95
14,"CN(C(=O)C(C)(C)C)c1ccc(Cl)nn1 [III-17, N-(6-chloro-3-pyridazinyl)-N-methyl-N-2,2-trimethylpropanamide]",1.69
15,"CC(C)Oc1ccc(Cl)nn1 [III-18, 3-chloro-6-isopropoxypyridazine]",1.94
16,"FC(F)(F)COc1ccc(Cl)nn1 [III-19, 3-chloro-6-(2,2,2-trifluoroethoxy)pyridazine]",2.05
17,"CC(C)Sc1ccc(Cl)nn1 [III-20, 6-chloro-3-pyridazinyl isopropyl sulphide]",2.34
18,"CC(C)S(=O)(=O)c1ccc(Cl)nn1 [III-21, 6-chloro-3-pyridazinyl isopropyl sulphone]",1.2
19,"O=S(=O)(Nc1ccc(Cl)nn1)C(F)(F)F [III-22, N-(6-chloro-3-pyridazinyl)(trifluoro)methane-sulphonamide]",1.56
20,"CN(c1ccc(Cl)nn1)S(=O)(=O)C(F)(F)F [III-23, N-(6-chloro-3-pyridazinyl)(trifluoro)-N-methyl-methanesulphonamide]",2.18

# Tested on: army worm (Spodoptera frugiperda) caterpillars
# Assay: Spodoptera frugiperda test (cabbage leaves dipped)
# Format: in vivo
# Details: 168 h, active compound concentration 500 ppm, after 7 d, read-out: Kill rate in % after 7 d
# Protocol: Spodoptera frugiperda Test To produce a suitable preparation of active compound, 1 part by weight of active compound is mixed with the stated amounts of solvent and emulsifier, and the concentrate is diluted with emulsifier-containing water to the desired concentration. Cabbage leaves (Brassica oleracea) are treated by being dipped into the preparation of active compound of the desired concentration and are populated with army worm (Spodoptera frugiperda) caterpillars whilst the leaves are still moist. After the desired period of time, the kill in % is determined. 100% means that all caterpillars have been killed; 0% means that none of the caterpillars have been killed.
row,Compound,pest or weed control at 500 ppm [%]
1,O=C1CCCN1c1ccc(-c2ccc(C3CCC(c4c(F)cccc4F)=N3)cc2)nn1 (stereo not drawn) [drawing 285],100

# Same assay, conditions: 168 h, active compound concentration 1000 ppm, after 7 d, read-out: Kill rate in % after 7 d
row,Compound,pest or weed control at 1000 ppm [%]
1,CCCCCCN(CCCCCC)c1ccc(-c2ccc(C3CCC(c4c(F)cccc4F)=N3)cc2)nn1 (stereo not drawn),100
2,Fc1cccc(F)c1C1=NC(c2ccc(-c3ccc(Cl)cn3)cc2)CC1 (stereo not drawn) [drawing 280],100
3,CN(C)c1ncc(-c2ccc(C3CCC(c4c(F)cccc4F)=N3)cc2)cn1 (stereo not drawn) [drawing 281],100
4,CC(C)Oc1ccc(-c2ccc(C3CCC(c4c(F)cccc4F)=N3)cc2)nn1 (stereo not drawn) [drawing 282],100
5,CC(C)Sc1ccc(-c2ccc(C3CCC(c4c(F)cccc4F)=N3)cc2)nn1 (stereo not drawn) [drawing 283],100
6,Fc1cccc(F)c1C1=NC(c2ccc(-c3cnc(N4CCOCC4)nc3)cc2)CC1 (stereo not drawn) [drawing 284],100
